Source: patent publication US12281149B2, “Modulators of G-protein coupled receptors” (priority 2021, dated 2025)
*1 amine or outer side, *2 acyl side, *3 side chain or, on linkers, in order; H or OH if unused. Where a SMILES comes first, the peptide text is derived from it. Side-chain parts run from the residue outwards. [ ]: non-standard residue; d: D form. The star is where a group is joined. C20 diacid = O=C(O)CCCCCCCCCCCCCCCCCCC(=O)*; γGlu = O=C(O)[C@H](CCC(=O)[*:2])N[*:1]; X19 = O=C1COc2ccccc2N1CCNCCC(=O)*; X45 = CC(Cn1cc(Br)cn1)NCCC(=O)*; X47 = O=C(CCNCc1cc(O)cc(Cl)c1)*; X50 = CC(C)(N*)c1ccc(F)c(F)c1; X8 = O=C(CCNCc1cc(O)cc(F)c1)*; Suc = O=C(CCC(=O)[*:2])[*:1]; AEEA = NCCOCCOCC(=O)O; Aib = CC(C)(N)C(=O)O

Columns and labels:
Format in all cases: cell-based
GLP-1 receptor [1] = molecular target: T1, GLP-1 receptor (Homo sapiens, UniProt P43220); assay: HitHunter cAMP assay, GLP-1 receptor; conditions: for EC50: CHO cells stably expressing human GLP-1 receptor, cAMP accumulation, 30 min, read-out: EC50 GLP-1R; for Emax: CHO cells, cAMP, normalized to maximum signal from GLP-1 (high) and DMSO (low), read-out: Emax GLP-1R
GIP receptor [2] = molecular target: T2, GIP receptor (Homo sapiens, UniProt P48546); assay: HitHunter cAMP assay, GIP receptor; conditions: for EC50: CHO cells stably expressing GIP receptor, cAMP accumulation, 30 min, read-out: EC50 GIP-1R; for Emax: CHO cells, cAMP, normalized to maximum signal from GIP (high) and DMSO (low), read-out: Emax GIP-1R
T2 sequence (P48546 22-466): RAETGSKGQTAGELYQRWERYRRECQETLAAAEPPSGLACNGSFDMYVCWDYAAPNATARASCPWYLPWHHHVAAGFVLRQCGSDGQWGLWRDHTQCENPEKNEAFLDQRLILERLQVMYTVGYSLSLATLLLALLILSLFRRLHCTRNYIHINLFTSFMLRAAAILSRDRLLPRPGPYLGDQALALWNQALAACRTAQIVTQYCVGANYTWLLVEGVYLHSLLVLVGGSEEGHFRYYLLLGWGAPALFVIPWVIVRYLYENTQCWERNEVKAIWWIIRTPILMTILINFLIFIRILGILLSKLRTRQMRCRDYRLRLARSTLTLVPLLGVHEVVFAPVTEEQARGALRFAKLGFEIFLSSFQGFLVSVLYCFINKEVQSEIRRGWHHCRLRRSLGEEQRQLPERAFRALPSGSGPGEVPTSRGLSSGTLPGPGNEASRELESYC
Description: CAMP accumulation was measured in Chinese hamster ovary (CHO) cells stably expressing the human GLP-1 receptor or GIP receptor using the HitHunter CAMP Assay for Small Molecules Kit (Eurofins). Briefly, cells were grown in Ham's F12 Nutrient Mix with 10% FBS and lifted with Cell dissociation buffer, Enzyme free, PBS based (ThermoFisher). Cells were pelleted and resuspended in Hank's buffered saline solution with 10 mM Hepes and 625 μM 3-isobutyl-1-methylxanthine. The antibody reagent was then added to cells at a 1:2 ratio and 5 μL of mixture was seeded in 384-well small volume white assay plates, at 10,000 cells/well. Cells were then treated with 50 nl compound in DMSO using an ECHO 550 acoustic dispenser (Labcyte) in a 20-point dose response format in triplicate for 30 min. Cells were the lysed and detection reagents added according to the manufacturer's protocol. After overnight incubation, luminescence was measured using a Perkin Elmer Envision plate reader. Raw data was normalized to the maximum signal from GLP-1 or GIP (high) and DMSO (low). Dose response curves were analyzed using GraphPad Prism 9.0.

GIP receptor [3] = molecular target: T2, GIP receptor; assay: PathHunter β-arrestin assay, GIP receptor; parameters: host or cells: PathHunter CHO-K1 GIPR β-Arrestin Cell Line; conditions: β-arrestin-2 recruitment, PathHunter CHO-K1 GIPR β-Arrestin Cell Line, 90 min at 37° C.; normalized to GIP; read-out: GIPR β Arrestin EC50
GLP-1 receptor [4] = molecular target: T1, GLP-1 receptor; assay: PathHunter β-arrestin assay, GLP-1 receptor; parameters: host or cells: PathHunter CHO-K1 GLP1R β-Arrestin Cell Line; conditions: β-arrestin-2 recruitment, PathHunter CHO-K1 GLP1R β-Arrestin Cell Line, 90 min at 37° C.; normalized to GLP-1; read-out: GLP-1R β Arrestin EC50

T1 sequence (P43220 24-463): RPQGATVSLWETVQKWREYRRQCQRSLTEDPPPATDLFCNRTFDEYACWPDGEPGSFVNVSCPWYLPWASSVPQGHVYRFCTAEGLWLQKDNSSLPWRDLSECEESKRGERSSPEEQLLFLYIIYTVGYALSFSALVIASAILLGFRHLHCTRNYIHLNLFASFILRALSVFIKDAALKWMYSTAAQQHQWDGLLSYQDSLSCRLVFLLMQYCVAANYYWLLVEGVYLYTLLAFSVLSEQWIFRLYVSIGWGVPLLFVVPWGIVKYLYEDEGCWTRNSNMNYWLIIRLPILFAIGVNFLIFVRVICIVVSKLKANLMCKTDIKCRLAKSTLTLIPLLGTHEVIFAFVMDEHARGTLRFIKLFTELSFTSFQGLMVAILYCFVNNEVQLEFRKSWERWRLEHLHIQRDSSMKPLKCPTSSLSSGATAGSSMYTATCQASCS

SMILES: CC[C@H](C)[C@H](NC(=O)[C@H](CC(C)C)NC(=O)[C@H](Cc1c[nH]c2ccccc12)NC(=O)[C@H](CCC(N)=O)NC(=O)[C@@H](NC(=O)[C@H](Cc1ccccc1)NC(=O)[C@H](C)NC(=O)[C@H](CCCCNC(=O)COCCOCCNC(=O)COCCOCCNC(=O)CC[C@H](NC(=O)CCCCCCCCCCCCCCCCCCC(=O)O)C(=O)O)NC(=O)[C@H](CCC(N)=O)NC(=O)[C@H](C)NC(=O)[C@@H](NC(=O)[C@H](CCCCN)NC(=O)[C@H](CC(=O)O)NC(=O)[C@H](CC(C)C)NC(=O)C(C)(C)NC(=O)[C@@H](NC(=O)[C@H](CO)NC(=O)[C@H](Cc1ccc(O)cc1)NC(=O)[C@H](CC(=O)O)NC(=O)[C@H](CO)NC(=O)[C@@H](NC(=O)[C@H](Cc1ccccc1)NC(=O)[C@@H](NC(=O)CNC(=O)[C@H](CCC(=O)O)NC(=O)CCNC(C)Cn1cc(Br)cn1)[C@@H](C)O)[C@@H](C)O)[C@@H](C)CC)[C@@H](C)CC)C(C)C)C(=O)N[C@@H](C)C(=O)NCC(=O)NCC(=O)N1CCC[C@H]1C(=O)N[C@@H](CO)C(=O)N[C@@H](CO)C(=O)NCC(=O)N[C@@H](C)C(=O)N1CCC[C@H]1C(=O)N1CCC[C@H]1C(=O)N1CCC[C@H]1C(=O)N[C@@H](CO)C(N)=O (stereo partly drawn) [Compound 274] (X45-EGTFTSDYSI[Aib]LDKIAQK([AEEA-AEEA-γGlu-C20 diacid])AFVQWLIAGGPSSGAPPPS-NH2)
- EC50 (GLP-1 receptor [1]): 10 to 100 nM
- Emax (GLP-1 receptor [1]): 88%
- EC50 (GIP receptor [2]): 100 to 1000 nM
- Emax (GIP receptor [2]): 36%
- EC50 (GIP receptor [3]): > 1000 nM
- EC50 (GLP-1 receptor [4]): > 1000 nM

SMILES: CC[C@H](C)[C@H](NC(=O)[C@H](CC(C)C)NC(=O)[C@H](Cc1c[nH]c2ccccc12)NC(=O)[C@H](CCC(N)=O)NC(=O)[C@@H](NC(=O)[C@H](Cc1ccccc1)NC(=O)[C@H](C)NC(=O)[C@H](CCCCNC(=O)COCCOCCNC(=O)COCCOCCNC(=O)CC[C@H](NC(=O)CCCCCCCCCCCCCCCCCCC(=O)O)C(=O)O)NC(=O)[C@H](CCC(N)=O)NC(=O)[C@H](C)NC(=O)[C@@H](NC(=O)[C@H](CCCCN)NC(=O)[C@H](CC(=O)O)NC(=O)[C@H](CC(C)C)NC(=O)C(C)(C)NC(=O)[C@@H](NC(=O)[C@H](CO)NC(=O)[C@H](Cc1ccc(O)cc1)NC(=O)[C@H](CC(=O)O)NC(=O)[C@H](CO)NC(=O)[C@@H](NC(=O)[C@H](Cc1ccccc1)NC(=O)[C@@H](NC(=O)CNC(=O)[C@H](CCC(=O)O)NC(=O)CCNCc1cc(O)cc(Cl)c1)[C@@H](C)O)[C@@H](C)O)[C@@H](C)CC)[C@@H](C)CC)C(C)C)C(=O)N[C@@H](C)C(=O)NCC(=O)NCC(=O)N1CCC[C@H]1C(=O)N[C@@H](CO)C(=O)N[C@@H](CO)C(=O)NCC(=O)N[C@@H](C)C(=O)N1CCC[C@H]1C(=O)N1CCC[C@H]1C(=O)N1CCC[C@H]1C(=O)N[C@@H](CO)C(N)=O [Compound 275] (X47-EGTFTSDYSI[Aib]LDKIAQK([AEEA-AEEA-γGlu-C20 diacid])AFVQWLIAGGPSSGAPPPS-NH2)
- EC50 (GLP-1 receptor [1]): 1 to 10 nM
- Emax (GLP-1 receptor [1]): 99%
- EC50 (GIP receptor [2]): 10 to 100 nM
- Emax (GIP receptor [2]): 17%
- EC50 (GIP receptor [3]): > 1000 nM
- EC50 (GLP-1 receptor [4]): > 1000 nM

SMILES: CC[C@H](C)[C@H](NC(=O)[C@H](CC(C)C)NC(=O)[C@H](Cc1c[nH]c2ccccc12)NC(=O)[C@H](CCC(N)=O)NC(=O)[C@@H](NC(=O)[C@H](Cc1ccccc1)NC(=O)[C@H](C)NC(=O)[C@H](CCCCNC(=O)COCCOCCNC(=O)COCCOCCNC(=O)CC[C@H](NC(=O)CCCCCCCCCCCCCCCCCCC(=O)O)C(=O)O)NC(=O)[C@H](CCC(N)=O)NC(=O)[C@H](C)NC(=O)[C@@H](NC(=O)[C@H](CCCCN)NC(=O)[C@H](CC(=O)O)NC(=O)[C@H](CC(C)C)NC(=O)C(C)(C)NC(=O)[C@@H](NC(=O)[C@H](CO)NC(=O)[C@H](Cc1ccc(O)cc1)NC(=O)[C@H](CC(=O)O)NC(=O)[C@H](CO)NC(=O)[C@@H](NC(=O)[C@H](Cc1ccccc1)NC(=O)[C@@H](NC(=O)CNC(=O)[C@H](CCC(=O)O)NC(=O)CCNCCN1C(=O)COc2ccccc21)[C@@H](C)O)[C@@H](C)O)[C@@H](C)CC)[C@@H](C)CC)C(C)C)C(=O)N[C@@H](C)C(=O)NCC(=O)NCC(=O)N1CCC[C@H]1C(=O)N[C@@H](CO)C(=O)N[C@@H](CO)C(=O)NCC(=O)N[C@@H](C)C(=O)N1CCC[C@H]1C(=O)N1CCC[C@H]1C(=O)N1CCC[C@H]1C(=O)N[C@@H](CO)C(N)=O [Compound 276] (X19-EGTFTSDYSI[Aib]LDKIAQK([AEEA-AEEA-γGlu-C20 diacid])AFVQWLIAGGPSSGAPPPS-NH2)
- EC50 (GLP-1 receptor [1]): 10 to 100 nM
- Emax (GLP-1 receptor [1]): 95%
- EC50 (GIP receptor [2]): 100 to 1000 nM
- Emax (GIP receptor [2]): 35%
- EC50 (GIP receptor [3]): > 1000 nM
- EC50 (GLP-1 receptor [4]): > 1000 nM

SMILES: CC[C@H](C)[C@H](NC(=O)[C@H](CC(C)C)NC(=O)[C@H](Cc1c[nH]c2ccccc12)NC(=O)[C@H](CCC(N)=O)NC(=O)[C@@H](NC(=O)[C@H](Cc1ccccc1)NC(=O)[C@H](C)NC(=O)[C@H](CCCCNC(=O)COCCOCCNC(=O)COCCOCCNC(=O)CC[C@H](NC(=O)CCCCCCCCCCCCCCCCCCC(=O)O)C(=O)O)NC(=O)[C@H](CCC(N)=O)NC(=O)[C@H](C)NC(=O)[C@@H](NC(=O)[C@H](CCCCN)NC(=O)[C@H](CC(=O)O)NC(=O)[C@H](CC(C)C)NC(=O)C(C)(C)NC(=O)[C@@H](NC(=O)[C@H](CO)NC(=O)[C@H](Cc1ccc(O)cc1)NC(=O)[C@H](CC(=O)O)NC(=O)[C@H](CO)NC(=O)[C@@H](NC(=O)[C@H](Cc1ccccc1)NC(=O)[C@@H](NC(=O)CNC(=O)[C@H](CCC(=O)O)NC(=O)CCNCc1cc(O)cc(F)c1)[C@@H](C)O)[C@@H](C)O)[C@@H](C)CC)[C@@H](C)CC)C(C)C)C(=O)N[C@@H](C)C(=O)NCC(=O)NCC(=O)N1CCC[C@H]1C(=O)N[C@@H](CO)C(=O)N[C@@H](CO)C(=O)NCC(=O)N[C@@H](C)C(=O)N1CCC[C@H]1C(=O)N1CCC[C@H]1C(=O)N1CCC[C@H]1C(=O)N[C@@H](CO)C(N)=O [Compound 277] (X8-EGTFTSDYSI[Aib]LDKIAQK([AEEA-AEEA-γGlu-C20 diacid])AFVQWLIAGGPSSGAPPPS-NH2)
- EC50 (GLP-1 receptor [1]): 1 to 10 nM
- Emax (GLP-1 receptor [1]): 89%
- EC50 (GIP receptor [2]): 100 to 1000 nM
- Emax (GIP receptor [2]): 6%
- EC50 (GIP receptor [3]): > 1000 nM
- EC50 (GLP-1 receptor [4]): > 1000 nM

SMILES: CC[C@H](C)[C@H](NC(=O)[C@H](CC(C)C)NC(=O)[C@H](Cc1c[nH]c2ccccc12)NC(=O)[C@H](CCC(N)=O)NC(=O)[C@@H](NC(=O)[C@H](Cc1ccccc1)NC(=O)[C@H](C)NC(=O)[C@H](CCCCNC(=O)COCCOCCNC(=O)COCCOCCNC(=O)CC[C@H](NC(=O)CCCCCCCCCCCCCCCCCCC(=O)O)C(=O)O)NC(=O)[C@H](CCC(N)=O)NC(=O)[C@H](C)NC(=O)[C@@H](NC(=O)[C@H](CCCCN)NC(=O)[C@H](CC(=O)O)NC(=O)[C@H](CC(C)C)NC(=O)C(C)(C)NC(=O)[C@@H](NC(=O)[C@H](CO)NC(=O)[C@H](Cc1ccc(O)cc1)NC(=O)[C@H](CC(=O)O)NC(=O)[C@H](CO)NC(=O)[C@@H](NC(=O)[C@H](Cc1ccccc1)NC(=O)[C@@H](NC(=O)CNC(=O)[C@H](CCC(=O)O)NC(=O)CCC(=O)NC(C)(C)c1ccc(F)c(F)c1)[C@@H](C)O)[C@@H](C)O)[C@@H](C)CC)[C@@H](C)CC)C(C)C)C(=O)N[C@@H](C)C(=O)NCC(=O)NCC(=O)N1CCC[C@H]1C(=O)N[C@@H](CO)C(=O)N[C@@H](CO)C(=O)NCC(=O)N[C@@H](C)C(=O)N1CCC[C@H]1C(=O)N1CCC[C@H]1C(=O)N1CCC[C@H]1C(=O)N[C@@H](CO)C(N)=O [Compound 280] ({X50-Suc}-EGTFTSDYSI[Aib]LDKIAQK([AEEA-AEEA-γGlu-C20 diacid])AFVQWLIAGGPSSGAPPPS-NH2)
- EC50 (GLP-1 receptor [1]): 1 to 10 nM
- Emax (GLP-1 receptor [1]): 90%
- EC50 (GIP receptor [2]): 1 to 10 nM
- Emax (GIP receptor [2]): 114%
- EC50 (GIP receptor [3]): > 1000 nM
- EC50 (GLP-1 receptor [4]): > 1000 nM
